Source: the supplement of paper PMC4862054

Assays:
MDA-MB-436 [1] = experiment: normalised viability (% of control), CellTiter-Blue; higher = more viable cells (100 = DMSO, 0 = benzethonium chloride kill control); settings: 1 nM; incubation time: 72 h
Procedure: (§1)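 DSRT, CellTiter-Blue viability, 72 h incubation. Signal is normalised to DMSO and benzethonium chloride controls. Value is the normalised response at dose 1.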

Hs578T [2] = experiment: as above; settings: 1 nM; incubation time: 72 h
Procedure: as §1

CAL-120 [3] = experiment: normalised viability (% of control), CellTiter-Blue; higher = more viable cells (about 100 = DMSO control); settings: 10 nM; incubation time: 72 h
In short: (§2)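 Each entry is normalised viability at a single listed concentration within a series. It comes from breast cancer cell lines incubated 72 h with compound in 384-well plates, then measured with CellTiter-Blue fluorescence at 560/590 nm. Every plate was normalised between vehicle (100) and a positive kill control (0).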

MDA-MB-468 [4] = experiment: as above; settings: 10 nM; incubation time: 72 h
In short: as §2

HDQ-P1 [5] = experiment: as above; settings: 3 nM; incubation time: 72 h
In short: as §2

DU-4475 = experiment: as above; settings: 3 nM; incubation time: 72 h
In short: as §2

HCC1599 = experiment: as above; settings: 10 nM; incubation time: 72 h
In short: as §2

BT-474 [6] = experiment: as above; settings: 10 nM; incubation time: 72 h
In short: as §2

BT-549 = experiment: as above; settings: 10 nM; incubation time: 72 h
In short: as §2

MDA-MB-231 [7] = experiment: as above; settings: 10 nM; incubation time: 72 h
In short: as §2

CAL-85-1 [8] = experiment: as above; settings: 3 nM; incubation time: 72 h
In short: as §2

HCC1143 = experiment: as above; settings: 10 nM; incubation time: 72 h
In short: as §2

MDA-MB-453 [9] = experiment: as above; settings: 3 nM; incubation time: 72 h
In short: as §2

MDA-MB-436 [10] = experiment: as above; settings: 10 nM; incubation time: 72 h
In short: as §2

SK-BR-3 = experiment: as above; settings: 10 nM; incubation time: 72 h
In short: as §2

Hs578T [11] = experiment: as above; settings: 10 nM; incubation time: 72 h
In short: as §2

CAL-148 [12] = experiment: as above; settings: 3 nM; incubation time: 72 h
In short: as §2

MFM-223 = experiment: as above; settings: 10 nM; incubation time: 72 h
In short: as §2

CAL-51 [13] = experiment: as above; settings: 3 nM; incubation time: 72 h
In short: as §2

HCC1937 [14] = experiment: as above; settings: 10 nM; incubation time: 72 h
In short: as §2

HDQ-P1 [15] = experiment: as above; settings: 100 nM; incubation time: 72 h
In short: as §2

BT-474 [16] = experiment: as above; settings: 10000 nM; incubation time: 72 h
In short: as §2

MDA-MB-231 [17] = experiment: as above; settings: 10000 nM; incubation time: 72 h
In short: as §2

MDA-MB-436 [18] = experiment: as above; settings: 10000 nM; incubation time: 72 h
In short: as §2

CAL-148 [19] = experiment: as above; settings: 100 nM; incubation time: 72 h
In short: as §2

CAL-120 [20] = settings: 72 h
In short: (§3)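 Breast cancer cell lines (20 µl suspension) were seeded into 384-well plates holding compound at 5 concentrations in 10-fold steps over a compound-specific 10,000-fold range, then incubated 72 h. Cell death was read first by CellTox Green fluorescence (485/520 nm), then viability by CellTiter-Glo luminescence after 10 min at room temperature. Each plate was normalised to 0.1 % DMSO and a positive kill control. EC50 was fitted from the dose-response curves and censored at the top concentration.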

MDA-MB-468 [21] = settings: 72 h
In short: as §3

BT-474 [22] = settings: 72 h
In short: as §3

MDA-MB-231 [23] = settings: 72 h
In short: as §3

CAL-85-1 [24] = settings: 72 h
In short: as §3

MDA-MB-453 [25] = settings: 72 h
In short: as §3

Hs578T [26] = settings: 72 h
In short: as §3

MCF-10A = settings: 72 h
In short: as §3

CAL-51 [27] = settings: 72 h
In short: as §3

HCC1937 [28] = settings: 72 h
In short: as §3

Row | EC50, CellTiter-Glo (MDA-MB-468 [21]) [µM] | EC50, CellTiter-Glo (BT-474 [22]) [nM] | EC50, CellTiter-Glo (MDA-MB-231 [23]) [nM] | EC50, CellTiter-Glo (MDA-MB-453 [25]) [µM] | EC50, CellTiter-Glo (HCC1937 [28]) [nM] | Compound | normalised viability (MDA-MB-436 [1]) [%] | normalised viability (Hs578T [2]) [%] | normalised viability (CAL-120 [3]) [%] | normalised viability (MDA-MB-468 [4]) [%] | normalised viability (HDQ-P1 [5]) [%] | normalised viability (DU-4475) [%] | normalised viability (HCC1599) [%] | normalised viability (BT-474 [6]) [%] | normalised viability (BT-549) [%] | normalised viability (MDA-MB-231 [7]) [%] | normalised viability (CAL-85-1 [8]) [%] | normalised viability (HCC1143) [%] | normalised viability (MDA-MB-453 [9]) [%] | normalised viability (MDA-MB-436 [10]) [%] | normalised viability (SK-BR-3) [%] | normalised viability (Hs578T [11]) [%] | normalised viability (CAL-148 [12]) [%] | normalised viability (MFM-223) [%] | normalised viability (CAL-51 [13]) [%] | normalised viability (HCC1937 [14]) [%] | normalised viability (HDQ-P1 [15]) [%] | normalised viability (BT-474 [16]) [%] | normalised viability (MDA-MB-231 [17]) [%] | normalised viability (MDA-MB-436 [18]) [%] | normalised viability (CAL-148 [19]) [%] | EC50, CellTiter-Glo (CAL-120 [20]) [nM] | EC50, CellTiter-Glo (CAL-85-1 [24]) [nM] | EC50, CellTiter-Glo (Hs578T [26]) [µM] | EC50, CellTiter-Glo (MCF-10A) [nM] | EC50, CellTiter-Glo (CAL-51 [27]) [nM]
1 |  |  |  |  |  | CNNCc1ccc(C(=O)NC(C)C)cc1 [Procarbazine] | 99.3 | 107 | 104 | 105 | 146 | 90.7 | 97.4 | 106 | 111 | 109 | 95.6 | 93.1 | 114 | 97 | 110 | 105 | 103 | 98.4 | 107 | 87 | 109 | 113 | 109 | 81.5 | 99 |  |  |  |  | 
2 | 4.39 | 1750 | 1270 | > 10 | 2370 | CC(C)c1c(C(=O)Nc2ccccc2)c(-c2ccccc2)c(-c2ccc(F)cc2)n1CC[C@@H](O)C[C@@H](O)CC(=O)O [Atorvastatin] |  |  |  |  |  |  |  |  |  |  |  |  |  |  |  |  |  |  |  |  |  |  |  |  |  | 1840 | 1900 | 7.69 | 2280 | 2210
